Experimental findings from ChEMBL document CHEMBL1201862, “PubChem BioAssay data set” (2004) are described below.

Test systems include SF-539; A498; CAKI-1; SF-295; NCI-H23; KM12; MOLT-4; HOP-92; Malme-3M; T47D; SNB-75; DU-145; SK-OV-3; COLO 205; K562; NCI-H226; SK-MEL-2; UACC-62; BT-549; M14.
Assay in all cases: inhibition of tumour cell growth, NCI panel, 48 h

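Five concentrations, 48 hours, 96-well plates. GI50 = concentration required for 50% inhibition of growth.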 Calls of active or inactive are those of the source. No stated cut-off is given here; in the data, active = GI50 up to about 1.1 µM and inactive = higher. Where only a bound is given, the exact number is not on record here.

Consider `Cc1ccc2c(O)cc(-c3csc4ccccc34)nc2n1`, for which the GI50 in the experiment on SF-539 was < 0.01 µM (active); with A498, < 0.01 µM (active); with CAKI-1 it was < 0.01 µM (active); in the experiment with SF-295, < 0.01 µM (active); in the experiment on NCI-H23, 0.0274 µM (active); in the experiment with KM12, < 0.01 µM (active). Further, the GI50 was < 0.01 µM (active) in the experiment on MOLT-4; 0.321 µM (active) in the experiment on HOP-92; < 0.01 µM (active) with Malme-3M; 21.2 µM (inactive) in the experiment with T47D; < 0.01 µM (active) with SNB-75; 0.0163 µM (active) in the experiment with DU-145. Moreover, the GI50 is < 0.01 µM (active) in the experiment on SK-OV-3; 0.0239 µM (active) in the experiment on COLO 205; < 0.01 µM (active) in the experiment with K562; 0.0174 µM (active) in the experiment with NCI-H226; 0.0139 µM (active) with SK-MEL-2; < 0.0122 µM (active) with UACC-62. Also, the GI50 in the experiment on BT-549 is 0.0183 µM (active); in the experiment on M14, < 0.01 µM (active).

With `Clc1ccc2c(SCC3CO3)c3ccccc3nc2c1` (stereo not given), the GI50 in the experiment with SF-539 was 2.13 µM (inactive); with A498, 17.3 µM (inactive); in the experiment on CAKI-1, 1.49 µM (inactive); with SF-295 it was 16.5 µM (inactive); with NCI-H23, 3.54 µM (inactive); in the experiment with KM12 it was 1.7 µM (inactive). The GI50 is 1.85 µM (inactive) in the experiment on MOLT-4; 2.12 µM (inactive) in the experiment on HOP-92; 2.04 µM (inactive) with Malme-3M; 1.66 µM (inactive) with T47D; 9.55 µM (inactive) in the experiment with SNB-75; 1.57 µM (inactive) in the experiment with DU-145. For the same compound, the GI50 is 21.1 µM (inactive) in the experiment on SK-OV-3; 3.02 µM (inactive) with COLO 205; 1.87 µM (inactive) with K562; 22.9 µM (inactive) in the experiment with NCI-H226; 2.7 µM (inactive) in the experiment with SK-MEL-2; 3.61 µM (inactive) with UACC-62. The GI50 was 6.03 µM (inactive) in the experiment on BT-549 and 1.72 µM (inactive) with M14.

As for `COc1ccc2nccc(/C=C/c3ccc(N(C)C)cc3)c2c1`, the GI50 in the experiment on SF-539, in the experiment on A498, in the experiment with CAKI-1, with SF-295, in the experiment with NCI-H23 and in the experiment with KM12 was > 10 µM (inactive) throughout. Also, the GI50 with MOLT-4 was 8.18 µM (inactive); with HOP-92, > 10 µM (inactive); in the experiment with Malme-3M, > 10 µM (inactive); in the experiment with T47D, > 10 µM (inactive); in the experiment with SNB-75, 6.73 µM (inactive); in the experiment with DU-145 it was > 10 µM (inactive). Moreover, the GI50 in the experiment with SK-OV-3 is > 10 µM (inactive); in the experiment with COLO 205, > 10 µM (inactive); with K562, 6.41 µM (inactive); in the experiment with NCI-H226 it was > 10 µM (inactive); with SK-MEL-2, > 10 µM (inactive); in the experiment with UACC-62, > 10 µM (inactive). Moreover, the GI50 in the experiment with BT-549 and in the experiment with M14 was > 10 µM (inactive) throughout.

On to `O=C1/C(=C\c2ccc(Cl)cc2Cl)Sc2scc(-c3cccc([N+](=O)[O-])c3)[n+]21`, for which the GI50 was 1.81 µM (inactive) with SF-539; 49 µM (inactive) in the experiment on A498; 3.03 µM (inactive) with CAKI-1; 24.9 µM (inactive) in the experiment with SF-295; 12.6 µM (inactive) with NCI-H23; 11.6 µM (inactive) in the experiment on KM12. For the same compound, the GI50 in the experiment with MOLT-4 was 1.45 µM (inactive); with HOP-92, 5.89 µM (inactive); in the experiment on Malme-3M, 8.11 µM (inactive); in the experiment with T47D, 12.2 µM (inactive); in the experiment with SNB-75, 19.9 µM (inactive); with DU-145, 14 µM (inactive). Moreover, the GI50 with SK-OV-3 is 41 µM (inactive); in the experiment with COLO 205, 0.59 µM (active); in the experiment on K562 it was 3.1 µM (inactive); in the experiment with NCI-H226, 13.5 µM (inactive); in the experiment with SK-MEL-2, 14.2 µM (inactive); with UACC-62, 8.65 µM (inactive). The values for the GI50 with BT-549 and with M14 were 4.45 µM (inactive) and 6.04 µM (inactive), respectively.

On to `O=[N+]([O-])c1ccc(Cl)cc1-n1nc(-c2ccccc2)cc1-c1ccccc1`, for which the GI50 in the experiment with SF-539 is 50.5 µM (inactive); with A498 it was > 100 µM (inactive); in the experiment on CAKI-1 it was > 100 µM (inactive); in the experiment on SF-295, > 100 µM (inactive); with NCI-H23, > 100 µM (inactive); in the experiment on KM12, > 100 µM (inactive). Also, the GI50 was > 100 µM (inactive) in the experiment on MOLT-4; > 100 µM (inactive) in the experiment on HOP-92; > 100 µM (inactive) in the experiment with Malme-3M; 22.3 µM (inactive) with T47D; > 100 µM (inactive) in the experiment on SNB-75; > 100 µM (inactive) with DU-145. Further, the GI50 with SK-OV-3, in the experiment on COLO 205, in the experiment on K562, with NCI-H226, with SK-MEL-2 and in the experiment with UACC-62 was > 100 µM (inactive) throughout. Further, the GI50 in the experiment with BT-549 and in the experiment on M14 was > 100 µM (inactive) in each case.

Turning to `CCOP(=O)(OCC)/C(=C/c1cccs1)CC(C)=O`, the GI50 was > 100 µM (inactive) in the experiment with SF-539; 75.3 µM (inactive) in the experiment with A498; > 100 µM (inactive) in the experiment on CAKI-1; > 100 µM (inactive) with SF-295; > 100 µM (inactive) with NCI-H23; > 100 µM (inactive) in the experiment on KM12. The GI50 in the experiment with MOLT-4 was 9.71 µM (inactive); in the experiment on HOP-92, > 100 µM (inactive); in the experiment on Malme-3M, > 100 µM (inactive); in the experiment on T47D, 73.8 µM (inactive); in the experiment on SNB-75 it was > 100 µM (inactive); in the experiment with DU-145, > 100 µM (inactive). The GI50 in the experiment with SK-OV-3, in the experiment on COLO 205, in the experiment with K562, in the experiment on NCI-H226, in the experiment with SK-MEL-2 and in the experiment on UACC-62 was > 100 µM (inactive) each time. The GI50 in the experiment with BT-549 and in the experiment with M14 was > 100 µM (inactive) each time.

Take `CC(=O)O[C@H]1C(=O)[C@@]2(C)[C@H]([C@H](OC(=O)c3ccccc3)[C@]3(O)C[C@H](OC(=O)[C@H](O)[C@@H](NC(=O)c4ccccc4)c4ccccc4C)C(C)=C1C3(C)C)[C@]1(OC(C)=O)CO[C@@H]1C[C@@H]2O`: the GI50 with SF-539 is 0.433 µM (active); in the experiment with A498, 0.444 µM (active); in the experiment with CAKI-1, 5.35 µM (inactive); in the experiment with SF-295, 1.16 µM (inactive); with NCI-H23, 0.948 µM (active); with KM12, 0.163 µM (active). In addition, the GI50 in the experiment with MOLT-4 is 0.411 µM (active); in the experiment on HOP-92 it was 2.13 µM (inactive); with Malme-3M, 1.66 µM (inactive); in the experiment with T47D, > 25 µM (inactive); in the experiment with SNB-75 it was 0.767 µM (active); with DU-145, 1.85 µM (inactive). For the same compound, the GI50 in the experiment on SK-OV-3 is 1.02 µM (active); with COLO 205, 0.136 µM (active); with K562, 0.211 µM (active); in the experiment with NCI-H226, 1.71 µM (inactive); with SK-MEL-2, 2.34 µM (inactive); with UACC-62, 1.22 µM (inactive). Moreover, the GI50 in the experiment on BT-549 is 0.687 µM (active); with M14, 0.55 µM (active).
